Measured values as given in paper PMC7827406, “Structure–Activity Relationship (SAR) Study of Spautin-1 to Entail the Discovery of Novel NEK4 Inhibitors” (International Journal of Molecular Sciences, 2021).
Read-outs that look alike come from different tables or passages of the source.

Assays:
Experiment in all cases: biochemical
Set-up in all cases: Eurofins KinaseProfiler full panel at Km ATP, residual kinase activity (%) relative to DMSO
ALK1(h) = biological target: T1, ALK1(h) (Homo sapiens, UniProt P37023)
T1 construct: gene ACVRL1
T1 sequence (P37023 whole entry): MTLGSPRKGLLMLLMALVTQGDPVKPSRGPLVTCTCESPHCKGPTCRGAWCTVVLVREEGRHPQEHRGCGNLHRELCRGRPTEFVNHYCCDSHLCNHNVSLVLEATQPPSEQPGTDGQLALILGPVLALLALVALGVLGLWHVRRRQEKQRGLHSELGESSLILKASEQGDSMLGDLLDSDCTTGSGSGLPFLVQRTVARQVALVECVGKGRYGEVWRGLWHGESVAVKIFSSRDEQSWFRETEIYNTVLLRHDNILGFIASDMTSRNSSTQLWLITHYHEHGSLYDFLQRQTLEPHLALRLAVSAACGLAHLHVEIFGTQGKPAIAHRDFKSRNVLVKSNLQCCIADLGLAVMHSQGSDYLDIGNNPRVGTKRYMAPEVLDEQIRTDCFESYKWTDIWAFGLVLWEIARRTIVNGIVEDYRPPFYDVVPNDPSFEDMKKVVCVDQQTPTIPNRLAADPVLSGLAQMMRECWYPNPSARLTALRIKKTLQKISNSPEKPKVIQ
Procedure, shortened: (§1)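 Compounds screened at 10 µM in radiometric kinase activity assays at Km ATP, reported as remaining kinase activity (%). A KINOMEscan competition-binding screen at 10 µM measured DNA-tagged kinase retained on immobilized active-site ligand by qPCR.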

Pim-1(h) = biological target: T2, Pim-1(h) (Homo sapiens, UniProt P11309)
T2 construct: gene PIM1
T2 sequence (P11309 whole entry): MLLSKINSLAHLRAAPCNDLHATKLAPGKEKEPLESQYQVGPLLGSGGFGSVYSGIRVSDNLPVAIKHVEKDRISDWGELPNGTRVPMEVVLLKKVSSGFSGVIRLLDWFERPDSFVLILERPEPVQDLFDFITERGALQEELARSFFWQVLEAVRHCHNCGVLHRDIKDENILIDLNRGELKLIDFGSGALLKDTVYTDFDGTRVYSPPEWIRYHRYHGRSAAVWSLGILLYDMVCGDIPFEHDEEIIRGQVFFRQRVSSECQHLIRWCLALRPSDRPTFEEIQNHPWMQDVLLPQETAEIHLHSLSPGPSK
Procedure, shortened: as §1

GSK3α(h) = biological target: T3, GSK3α(h) (Homo sapiens, UniProt P49840)
T3 construct: gene GSK3A
T3 sequence (P49840 whole entry): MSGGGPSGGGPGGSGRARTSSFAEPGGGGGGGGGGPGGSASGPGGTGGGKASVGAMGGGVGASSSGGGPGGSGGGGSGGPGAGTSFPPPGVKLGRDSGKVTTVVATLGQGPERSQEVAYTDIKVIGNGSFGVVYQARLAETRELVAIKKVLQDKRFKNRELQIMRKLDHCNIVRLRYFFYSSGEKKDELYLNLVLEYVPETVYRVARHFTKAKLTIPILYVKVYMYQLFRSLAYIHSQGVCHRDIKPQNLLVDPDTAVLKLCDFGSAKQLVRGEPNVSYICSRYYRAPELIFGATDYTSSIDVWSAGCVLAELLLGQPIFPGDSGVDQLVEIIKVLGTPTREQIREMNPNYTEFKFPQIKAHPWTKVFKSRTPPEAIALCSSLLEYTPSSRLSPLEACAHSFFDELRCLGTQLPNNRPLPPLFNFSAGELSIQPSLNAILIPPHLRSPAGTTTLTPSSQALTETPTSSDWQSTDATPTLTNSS
Procedure, shortened: as §1

PDK1(h) = biological target: T4, PDK1(h) (Homo sapiens, UniProt O15530)
T4 construct: gene PDPK1
T4 sequence (O15530 1-556): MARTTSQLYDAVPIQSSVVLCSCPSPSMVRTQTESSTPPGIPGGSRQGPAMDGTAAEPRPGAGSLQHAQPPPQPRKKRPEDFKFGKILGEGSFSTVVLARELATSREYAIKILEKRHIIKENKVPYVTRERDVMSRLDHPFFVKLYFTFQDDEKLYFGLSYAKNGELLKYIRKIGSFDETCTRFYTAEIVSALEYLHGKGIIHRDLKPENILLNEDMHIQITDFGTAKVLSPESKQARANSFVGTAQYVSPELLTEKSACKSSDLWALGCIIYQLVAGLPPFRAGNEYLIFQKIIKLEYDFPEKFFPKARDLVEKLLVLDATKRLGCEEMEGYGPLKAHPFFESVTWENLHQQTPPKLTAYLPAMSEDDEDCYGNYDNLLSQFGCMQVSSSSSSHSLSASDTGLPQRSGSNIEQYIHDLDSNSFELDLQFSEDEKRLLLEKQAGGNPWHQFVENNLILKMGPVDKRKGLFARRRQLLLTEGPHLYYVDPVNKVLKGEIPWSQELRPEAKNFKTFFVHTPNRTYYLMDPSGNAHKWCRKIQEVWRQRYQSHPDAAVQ
Procedure, shortened: as §1

EphA8(h) = biological target: T5, EphA8(h) (Homo sapiens, UniProt P29322)
T5 sequence (P29322 1-1005): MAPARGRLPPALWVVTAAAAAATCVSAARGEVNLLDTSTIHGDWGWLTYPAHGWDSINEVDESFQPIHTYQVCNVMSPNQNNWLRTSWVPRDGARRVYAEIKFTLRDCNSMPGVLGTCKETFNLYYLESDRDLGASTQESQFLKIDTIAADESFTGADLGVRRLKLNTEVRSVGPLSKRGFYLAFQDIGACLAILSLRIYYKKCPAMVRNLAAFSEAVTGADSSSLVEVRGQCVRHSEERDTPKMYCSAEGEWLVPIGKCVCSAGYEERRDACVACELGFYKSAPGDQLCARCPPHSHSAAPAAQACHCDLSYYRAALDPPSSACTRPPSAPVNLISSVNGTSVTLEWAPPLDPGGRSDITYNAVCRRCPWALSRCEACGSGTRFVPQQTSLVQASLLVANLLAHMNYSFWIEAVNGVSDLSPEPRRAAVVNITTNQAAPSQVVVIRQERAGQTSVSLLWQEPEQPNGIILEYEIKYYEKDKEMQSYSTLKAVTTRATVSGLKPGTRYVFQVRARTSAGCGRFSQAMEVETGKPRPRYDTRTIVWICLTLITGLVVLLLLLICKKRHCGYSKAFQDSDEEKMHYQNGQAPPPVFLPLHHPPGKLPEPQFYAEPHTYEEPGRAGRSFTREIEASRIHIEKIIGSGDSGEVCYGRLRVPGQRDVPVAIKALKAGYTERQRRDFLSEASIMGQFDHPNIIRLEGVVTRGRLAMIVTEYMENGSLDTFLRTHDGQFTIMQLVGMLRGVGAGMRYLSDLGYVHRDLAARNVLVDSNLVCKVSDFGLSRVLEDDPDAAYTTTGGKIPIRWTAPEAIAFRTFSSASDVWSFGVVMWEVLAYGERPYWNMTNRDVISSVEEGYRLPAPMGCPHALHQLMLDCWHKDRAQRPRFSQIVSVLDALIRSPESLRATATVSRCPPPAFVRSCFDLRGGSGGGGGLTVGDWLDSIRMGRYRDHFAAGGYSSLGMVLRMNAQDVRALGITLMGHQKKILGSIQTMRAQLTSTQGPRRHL
Procedure, shortened: as §1

SGK(h) = biological target: T6, SGK(h) (Homo sapiens, UniProt O00141)
T6 construct: gene SGK1
T6 sequence (O00141 1-431): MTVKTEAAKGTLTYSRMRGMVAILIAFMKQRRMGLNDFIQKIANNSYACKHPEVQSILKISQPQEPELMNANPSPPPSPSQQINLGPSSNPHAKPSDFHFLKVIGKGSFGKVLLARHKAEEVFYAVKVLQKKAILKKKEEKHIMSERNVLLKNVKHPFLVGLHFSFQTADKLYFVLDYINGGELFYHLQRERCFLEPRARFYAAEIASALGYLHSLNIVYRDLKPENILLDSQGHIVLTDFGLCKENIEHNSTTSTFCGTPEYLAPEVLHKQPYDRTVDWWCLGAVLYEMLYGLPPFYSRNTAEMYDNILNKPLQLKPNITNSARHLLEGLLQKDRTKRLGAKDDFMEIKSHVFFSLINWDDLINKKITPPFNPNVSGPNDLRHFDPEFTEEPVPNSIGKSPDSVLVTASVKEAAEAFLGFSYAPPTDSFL
Procedure, shortened: as §1

[1] = read-out: Residual activity (%) Spautin-1 5aa
[2] = read-out: Residual activity (%) 5as
[3] = read-out: Residual activity (%) 5at
[4] = read-out: Residual activity (%) 5ay

Fc1ccc(CNc2ncnc3ccc(F)cc23)cc1 [5aa, 6-Fluoro-N-(4-fluorobenzyl)-4-Quinazolinamine]
remaining activity at 10 µM (ALK1(h); [1]): 104% | remaining activity at 10 µM (Pim-1(h); [1]): 66% | remaining activity at 10 µM (GSK3α(h); [1]): 93% | remaining activity at 10 µM (PDK1(h); [1]): 102% | remaining activity at 10 µM (EphA8(h); [1]): 87% | remaining activity at 10 µM (SGK(h); [1]): 82%

Fc1ccc(CCNc2ncnc3ccc(F)cc23)cc1 [5as, 6-Fluoro-N-[2-(4-Fluorophenyl)Ethyl]-4-Quinazolinamine]
remaining activity at 10 µM (ALK1(h); [2]): 85% | remaining activity at 10 µM (Pim-1(h); [2]): 73% | remaining activity at 10 µM (GSK3α(h); [2]): 101% | remaining activity at 10 µM (PDK1(h); [2]): 88% | remaining activity at 10 µM (EphA8(h); [2]): 88% | remaining activity at 10 µM (SGK(h); [2]): 86%

Fc1ccc2ncnc(NCCc3ccc(Cl)cc3)c2c1 [5at, N-[2-(4-Chlorophenyl)Ethyl]-6-Fluoro-4-Quinazolinamine]
remaining activity at 10 µM (ALK1(h); [3]): 93% | remaining activity at 10 µM (Pim-1(h); [3]): 70% | remaining activity at 10 µM (GSK3α(h); [3]): 102% | remaining activity at 10 µM (PDK1(h); [3]): 84% | remaining activity at 10 µM (EphA8(h); [3]): 71% | remaining activity at 10 µM (SGK(h); [3]): 92%

COc1ccc2ncnc(Nc3cccc(F)c3)c2c1 [5ay, N-(3-Fluorophenyl)-6-Methoxy-4-Quinazolinamine]
remaining activity at 10 µM (ALK1(h); [4]): 96% | remaining activity at 10 µM (Pim-1(h); [4]): 39% | remaining activity at 10 µM (GSK3α(h); [4]): 69% | remaining activity at 10 µM (PDK1(h); [4]): 90% | remaining activity at 10 µM (EphA8(h); [4]): 84% | remaining activity at 10 µM (SGK(h); [4]): 82%
